From patent publication US5849863A, “Cytolytic bradykinin antagonists” (University of Colorado, priority 1995, dated 1998)
No end group written: not given here.

How the values were obtained:
[1] = tested on: Calcium flux in response to BK; assay: Calcium flux assay, response to BK; format: cell-based; conditions: read-out: IC50 Ca2+ (BK)
Protocol: (§1) Briefly, mechanically dispersed single cell suspensions of plateau phase cells (7 days after splitting) were suspended in 20 mM HEPES/BSS buffer (20 mM Hepes/140 mM NaCl/5mM KCI/1 mM MgCl2 /5 mM Glucose) adjusted to pH 6,8 at 37° C. The acetoxymethyl ester form of Indo-1 (Indo-AM) at 5 μM was incubated with the cells for 30 min at 37° C. and then diluted with 1:1 with 20 mM HEPES/BSS buffer, pH 7.4 to raise the final pH to 7.1 followed by a second 30-min incubation at 37° C.
(§2) UV excitation (80 mW at 360 nm) was delivered by a model INNOVA 90/5 argon ion laser (Coherent, Palo Alto, Calif.). […] Thus, the ratio of the 410 nm fluorescence/490 nm fluorescence constitutes a measure of the changes in calcium ions liberated form intracellular stores (Endoplasmic reticulum) in response to various stimuli. Viable, loaded cells were distinguished by the machine form debris, dead cells, and unloaded cells by forward angle and 90° light scatter and 490 nm fluorescence. […] Data were collected by the MDADS computer including 410 nm and 490 nm fluorescence intensities and the ratio of 410/490 fluorescence intensity was secured as a function of time. […] The data were analyzed by a program developed by Philip Jewett.

[2] = tested on: Calcium flux in response to CCK; assay: Calcium flux assay, response to CCK or gastrin; format: cell-based
Protocol: as §1, §2

SCLC cell line SHP-77 = assay: Colorimetric MTT assay, growth of SCLC cell line SHP-77; format: cell-based, human
Protocol: (§3) The effectiveness of the antagonist compounds in inhibiting cancer cell growth in vitro was determined using a panel of human lung cancer cell lines: SCLC--SHP77, H345 and NSCLC--A549, H450; breast carcinoma McF7, normal human epithelial BEAS and normal human skin fibroblast FS 15 were used to study the specificity and cytotoxicity of the BK antagonist dimers. Cell lines were treated with various concentrations of dimers for 5 to 7 days and cell viability were measured with routine MTT assay. Cells treated with BK dimers were also be evaluated for apoptosis using our newly developed cytometric technique.
Cellular growth and survival was measured by a rapid colorimetric assay, based on the tetrazolium salt MTT, (3-(4,5-dimethylthiazol-2-yl)-2,5-diphenyl tetrazolium bromide), developed by Mosmann (J. of Immun. Methods, 65, 55-63, 1983) with minor modifications. Briefly, 1,000 normal lung fibroblasts or normal epithelial BEAS-2B cells, 1,000 or 5,000 viable NSCLC cell and 10,000 viable SCLC cell were plated in a 100 μl volume of growth medium in 96 well flat-bottomed microtiter plates. The cells were allowed to recover overnight. Bradykinin antagonists at various concentrations were added to the cells in triplicates and the plates were incubated at 37° C., 5% CO2 with 100% humidity. […] Absorbance at 490 nm was immediately determined using a scannning multiwell plate reader. […]

SCLC cell lines [3] = assay: Growth of SCLC cell lines (MTT assay); format: cell-based, human; conditions: result in words
Protocol: as §3
Cellular growth and survival was measured by a rapid colorimetric assay, based on the tetrazolium salt MTT, (3-(4,5-dimethylthiazol-2-yl)-2,5-diphenyl tetrazolium bromide), developed by Mosmann (J. of Immun. Methods, 65, 55-63, 1983) with minor modifications. Briefly, 1,000 normal lung fibroblasts or normal epithelial BEAS-2B cells, 1,000 or 5,000 viable NSCLC cell and 10,000 viable SCLC cell were plated in a 100 μl volume of growth medium in 96 well flat-bottomed microtiter plates. The cells were allowed to recover overnight. Bradykinin antagonists at various concentrations were added to the cells in triplicates and the plates were incubated at 37° C., 5% CO2 with 100% humidity. […] Absorbance at 490 nm was immediately determined using a scannning multiwell plate reader.

SCLC cell lines [4] = assay: Apoptosis in SCLC / lung cancer cells; format: cell-based, human; conditions: inhibitory concentrations; data not shown
Stability in plasma = format: in vitro ADME
rat uterus = conditions: agonist reference value; cited from earlier work
guinea pig ileum = conditions: agonist reference value; cited from earlier work
[5] = tested on: intracellular Ca++ release, human lung cancer cell lines; conditions: Bunn et al. 1992; cited from earlier work

Compound | IC50 [1] [µM] | % Inhibition CCK Ca2+ [2] [%] | effect on SCLC growth (SCLC cell line SHP-77; concentration up to 40 μM, SHP-77) | IC50 (SCLC cell line SHP-77; growth of SCLC cell line SHP-77) [µM] | growth inhibition, SCLC cell lines (SCLC cell lines [3]) | apoptotic response in SCLC cell lines (SCLC cell lines [4]) | stable in plasma (Stability in plasma) | half-life (Stability in plasma; stability in plasma, read-out: Plasma t1/2) [h] | pD2 (negative logarithm of the dose of bradykinin that causes half-maximal contraction) (rat uterus) | pD2 (negative logarithm of the dose of bradykinin that causes half-maximal contraction) (guinea pig ileum) | stimulation of intracellular Ca++ release [5]
NC(N)=NCCC[C@@H](N)C(=O)N[C@@H](CCCN=C(N)N)C(=O)N1CCC[C@H]1C(=O)N1C[C@H](O)C[C@H]1C(=O)NCC(=O)N[C@@H](Cc1cccs1)C(=O)N[C@@H](CO)C(=O)N1Cc2ccccc2C[C@@H]1C(=O)N1[C@H](C(=O)N[C@@H](CCCN=C(N)N)C(=O)O)C[C@@H]2CCCC[C@@H]21 [Compound B116] | 0.01 | 0 | little effect | > 40 | no growth inhibition | no growth inhibition or apoptotic response | stable in plasma | > 24 |  |  | 
RPPGFSPFR [bradykinin, Arg^1 -Pro^2 -Pro^3 -Gly^4 -Phe^5 -Ser^6 -Pro^7 Phe^8 -Arg^9] |  |  |  |  |  |  |  |  | 7.9 | 7.4 | most potent peptide stimulant of intracellular Ca^++ release
